From PMC8070173, “Phenelzine and Amoxapine Inhibit Tyramine and d-Glucuronic Acid Catabolism in Clinically Significant Salmonella in A Serotype-Independent Manner” (Pathogens, 2021)

Biological target: T1, β-glucuronidase (GUS) (Escherichia coli, UniProt P05804)
T1 construct: gene uidA; purified GUS encoded by E. coli (G8420-25KU, Sigma-Aldrich)
Experiment: colorimetric PNPG hydrolysis (p-nitrophenol release) with purified enzyme; complete inhibition at […]
Assay type: biochemical

T1 sequence (P05804 whole entry): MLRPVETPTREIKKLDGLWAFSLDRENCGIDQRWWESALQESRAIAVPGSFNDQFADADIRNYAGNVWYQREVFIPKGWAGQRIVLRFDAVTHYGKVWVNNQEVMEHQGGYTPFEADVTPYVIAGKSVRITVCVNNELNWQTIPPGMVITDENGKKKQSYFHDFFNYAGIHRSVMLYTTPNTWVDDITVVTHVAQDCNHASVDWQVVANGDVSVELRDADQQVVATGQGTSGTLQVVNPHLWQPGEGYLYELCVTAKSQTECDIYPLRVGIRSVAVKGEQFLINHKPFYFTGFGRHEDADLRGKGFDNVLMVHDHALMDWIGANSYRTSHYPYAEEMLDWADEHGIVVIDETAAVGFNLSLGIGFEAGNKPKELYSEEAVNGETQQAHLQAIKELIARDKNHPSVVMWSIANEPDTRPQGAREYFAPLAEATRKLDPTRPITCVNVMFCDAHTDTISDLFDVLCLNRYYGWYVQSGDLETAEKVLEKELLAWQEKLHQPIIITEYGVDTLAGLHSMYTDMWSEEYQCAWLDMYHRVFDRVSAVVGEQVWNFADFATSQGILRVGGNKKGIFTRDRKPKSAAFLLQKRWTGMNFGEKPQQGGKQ

`Clc1ccc2c(c1)C(N1CCNCC1)=Nc1ccccc1O2` [amoxapine] was tested. Which “colorimetric PNPG hydrolysis (p-nitrophenol release) with purified enzyme; compl” value did it give?
Its value is 50 µM.
